Assay results published in patent US20210186982A1, “METHODS AND COMPOSITIONS FOR TREATING MELANOMA” (UNIVERSITE NICE SOPHIA ANTIPOLIS, priority 2017, published 2021).
Entries after “also recorded” stand apart in the source; their conditions may differ.

Key:
WM793 = experiment: MTS conversion assay, melanoma cell proliferation; assay type: cell-based; details: Homo sapiens, VGP, BRAFV600E/PTEN*, resistance none, 48 h MTS, read-out: b-AP15 IC50
Method: (§1) Cell proliferation was measured by a MTS conversion assay using the CellTiter 96® Aqueous Non-Radioactive Cell Proliferation kit (Promega, Madison Wis.) according to the manufacturer instructions. Cells were seeded in 96-well plates (5×10^4 cells/well) and treated with different reagents for the indicated times and incubated at 37° C. with MTS reagent. The optical density of each sample at 490 nm was determined with a Multiskan FC plate reader (Thermo Fisher Scientific, Waltham, Mass. USA).

WM164 = experiment: MTS conversion assay, melanoma cell proliferation; assay type: cell-based; details: Homo sapiens, MET, BRAFV600E/CDKN2A*, resistance none, 48 h MTS, read-out: b-AP15 IC50
Method: as §1

451Iu = experiment: MTS conversion assay, melanoma cell proliferation; assay type: cell-based; details: Homo sapiens, MET, BRAFV600E/p53*, resistance none, 48 h MTS, read-out: b-AP15 IC50
Method: as §1

m229 = experiment: MTS conversion assay, melanoma cell proliferation; assay type: cell-based; details: Homo sapiens, MET, BRAFV600E/PTEN*, resistance none, 48 h MTS, read-out: b-AP15 IC50
Method: as §1

m249 = experiment: MTS conversion assay, melanoma cell proliferation; assay type: cell-based; details: Homo sapiens, MET, BRAFV600E/PTEN*, resistance none, 48 h MTS, read-out: b-AP15 IC50
Method: as §1

m249R = experiment: MTS conversion assay, melanoma cell proliferation; assay type: cell-based; details: Homo sapiens, MET, BRAFV600E/PTEN*/NRAS*, resistance vemurafenib, 48 h MTS, read-out: b-AP15 IC50
Method: as §1

m238R = experiment: MTS conversion assay, melanoma cell proliferation; assay type: cell-based; details: Homo sapiens, MET, BRAFV600E/PTEN*/RTK*, resistance vemurafenib, 48 h MTS, read-out: b-AP15 IC50
Method: as §1

WM266-4 = experiment: MTS conversion assay, melanoma cell proliferation; assay type: cell-based; details: Homo sapiens, WM 266-4, MET, BRAFV600D/PTEN*, resistance none, 48 h MTS, read-out: b-AP15 IC50
Method: as §1

SBCL2 = experiment: MTS conversion assay, melanoma cell proliferation; assay type: cell-based; details: Homo sapiens, RGP, NRASQ61K, resistance none, 48 h MTS, read-out: b-AP15 IC50
Method: as §1

HMV2 = experiment: MTS conversion assay, melanoma cell proliferation; assay type: cell-based; details: Homo sapiens, HMV-2, MET, NRAS*, resistance none, 48 h MTS, read-out: b-AP15 IC50
Method: as §1

m238 = experiment: MTS conversion assay, melanoma cell proliferation; assay type: cell-based; details: Homo sapiens, MET, BRAFV600E/PTEN*, resistance none, 48 h MTS, read-out: b-AP15 IC50
Method: as §1

MeWo = experiment: MTS conversion assay, melanoma cell proliferation; assay type: cell-based; details: Homo sapiens, MET, p53*/CDKN2A*, resistance none, 48 h MTS, read-out: b-AP15 IC50
Method: as §1

melanoma cells = experiment: Cytotoxic effect, rounding of cells; assay type: cell-based, human
[1] = Body weight during xenograft study; assay type: in vivo; details: 10 mgkg-1 i.p. every 3 days; nude mice; course of the study
Method: All mouse experiments were carried out in accordance with the Institutional Animal Care and the local ethics committee. For human melanoma xenografts, 5-week-old female athymic (nu/nu) mice (Harlan) were subcutaneously injected with 1×106 451Lu-R BRAF inhibitor resistant melanoma cells engineered to express a luciferase reporter (451Lu-R Luc+ cells) in 100 μl of PBS. After 3 days, mice were injected every 3 days intraperitoneally with vehicle or 10 mgkg-1 b-AP15 in 90/1/9 mix of Labrafil/Tween 80/DMA. At the indicated time, mice were anesthetized and injected intraperitoneally with 50 mgkg-1 D-luciferin (Perkin Elmer) in PBS. Images were acquired using a Photon Imager (Biospace Lab) system and data analysed with the M3Vision software (Biospace Lab). Tumor growth was monitored and quantified using BLI. The total numbers of photons per second per steradian per square centimeter were recorded. For BLI plots, photon flux was calculated for each mouse by using a rectangular region of interest encompassing the thorax of the mouse in a prone position.

451IuR = experiment: MTS conversion assay, melanoma cell proliferation; assay type: cell-based, human
Method: as §1

A375 [2] = experiment: MTS conversion assay, melanoma cell proliferation; assay type: cell-based, human
Method: as §1

501Mel = experiment: MTS conversion assay, melanoma cell proliferation; assay type: cell-based, human
Method: as §1

1205Iu = experiment: MTS conversion assay, melanoma cell proliferation; assay type: cell-based, human
Method: as §1

m229R = experiment: MTS conversion assay, melanoma cell proliferation; assay type: cell-based, human
Method: as §1

Me1501 and A375 cells = experiment: Colony formation; assay type: cell-based, human; details: compared to untreated cells
Method: Alternatively, cell growth was assessed by crystal violet staining on cells seeded in 24-well plates for the indicated time. After treatment, cells were fixed in PFA 3% during 20 min, washed with PBS 3 times and stained with crystal violet 0.4% in ethanol 20% for 30 min.

A375 [3] = experiment: Real-time imaging growth curve (IncuCyte Zoom); assay type: cell-based, human; details: 2 μM; 3 days; compared with bortezomib and VLX1570
Method: FIG. 8. USP14 inhibition induces growth inhibition and cytotoxicity on melanoma cell lines. (A) Growth curve of A375 treated with 2 μM b-AP15, 2 μM VLX1570 or […] bortezomib (BTZ). Data were acquired in triplicate during 3 days using an IncuCyte Zoom. (B) and (C) Cytotoxic effects of USP14 inhibition on melanoma cells. A375 and Me1501 cells were treated with the indicated doses of b-AP15 or VLX1570, and stained with cytotox green reagent (100 nM). Cytotoxicity was monitored in triplicate for 72 h with an IncuCyte imaging system.

[4] = 24 h, increasing doses 0.1 to 10 μM
[5] = 24 h, increasing doses 0.01 to 10 μM

SMILES: Cc1cc(C(=O)CN2CCCC2)c(C)n1-c1ccc(F)cc1 [b-AP15]
- IC50 (WM793): 300 nM
- IC50 (WM164): 900 nM
- IC50 (451Iu): 900 nM
- IC50 (m229): 1200 nM
- IC50 (m249): 2000 nM
- IC50 (m249R): 3000 nM
- IC50 (m238R): 200 nM
- IC50 (WM266-4): 500 nM
- IC50 (SBCL2): 400 nM
- IC50 (HMV2): 1800 nM
- IC50 (m238): 400 nM
- IC50 (MeWo): 700 nM
- time to rounding of melanoma cells (melanoma cells): ≤ 12 h
- tolerability / weight loss [1]: no weight loss was observed
- cell proliferation of BRAFi-resistant 4511uR cells (MTS) (451IuR; [4]): potently decreased cell proliferation
- IC50 (451IuR; Homo sapiens, 451IuR, MET, BRAFV600E/p53*/?, resistance dabrafenib, 48 h MTS, read-out: b-AP15 IC50): 1300 nM
- cell proliferation of A375 cells (MTS) (A375 [2]; 24 h, increasing doses up to 10 μM): drastically decreased cell proliferation; also recorded: impaired cell proliferation in a dose-dependent manner
- IC50 (A375 [2]; Homo sapiens, A-375, A375, MET, BRAFV600E/CDKN2A*, resistance none, 48 h MTS, read-out: b-AP15 IC50): 600 nM
- cell proliferation of 501me1 cells (MTS) (501Mel; [5]): impaired cell proliferation in a dose-dependent manner
- IC50 (501Mel; Homo sapiens, 501Mel, MET, BRAFV600E, resistance none, 48 h MTS, read-out: b-AP15 IC50): 500 nM
- cell proliferation of 1205Lu cells (MTS) (1205Iu; [5]): impaired cell proliferation in a dose-dependent manner
- IC50 (1205Iu; Homo sapiens, 1205Iu, MET, BRAFV600E/PTEN*, resistance none, 48 h MTS, read-out: b-AP15 IC50): 400 nM
- cell proliferation of BRAFi-resistant m229R cells (MTS) (m229R; [4]): potently decreased cell proliferation
- IC50 (m229R; Homo sapiens, m229R, MET, BRAFV600E/PTEN*/RTK*, resistance vemurafenib, 48 h MTS, read-out: b-AP15 IC50): 1100 nM
- ability to form colonies, compound treatment (Me1501 and A375 cells): no longer capable of forming colonies
- effect on cell proliferation, real-time imaging (A375 [3]): rapid
